# Data published in patent US6013672A, “Agonists of metabotropic glutamate receptors and uses thereof” (UAB Research Foundation, priority 1997, dated 2000).
# Where two headings read alike, the source gives them in different places.
# Assays:
# [1] = test system: hippocampal astrocytes; assay: Extracellular glutamate [Glu]o released by astrocyte cultures (bioluminescence); assay type: cell-based, rat; settings: for activity at 100 µM: read-out: % of control [Glu]0
# [2] = test system: hippocampal astrocytes; assay: Removal of an exogenous glutamate challenge by astrocyte cultures, [Glu]o over time; assay type: cell-based, rat
# Protocol: The bioluminescence method for detection was used for glutamate in solution as described by Fosse et al. (1986) with only minor modifications. The glutamate-specific reagent mixture contained potassium phosphate (pH 7.0) 25 mM, Triton X-100 40 μg/ml, dithiothreitol 100 μM, Myristyl aldehyde 40 μM (Aldrich; Milwaukee, Wis.), β-NAD 2 mM, ADP 250 μM, FMN 2.5 μM, luciferase 40 μg/ml, NAD(P)H:FMN oxidoreductase 400 mU/ml, glutamate dehydrogenase 0.5 mg/ml. All experiments were performed with a Monolight 2010 luminomitor (Analytical Luminescence Lab; Ann Arbor, Mich.).
# (§1) For experiments in which [Glu]o concentrations were assessed by the bioluminescence method, cells were maintained in glutamate-depleted medium in the presence or absence of the agonists/antagonist combination of interest. To assess chronic effects, glutamate analogues were applied for 24 hours unless indicated otherwise. After the incubation period, the stimulation media (containing drugs of interest) were aspirated and cells were washed twice with MEM and allowed to remain for 30 to 60 minutes in drug free MEM supplemented with 20 mM glucose prior to taking media samples for glutamate measurements. To assess acute drug effects, untreated cells were washed and the reagent of interest applied in glucose supplemented MEM. Cells were harvested in 0.3 N NaOH and neutralized with 0.3 N HCl. Aliquots were stored in -20° C. for protein and [Glu]i determination. Glutamate standards used for calibration were prepared in MEM (For [Glu]i in 0.15 N NaCl).
# To delineate the role of mGluR receptors on [Glu]o levels, hippocampal astrocytes were challenged with 50 μM glutamate and cells that were pretreated with trans-ACPD were compared to control cultures (FIG. 2A). Control astrocytes rapidly remove glutamate from the medium, and after ≈3 hours, [Glu]o stabilized at values to 1 μM. […] Mean values were 0.96±0.1 μM in control astrocytes, as compared to 0.18±0.03 μM in trans-ACPD treated astrocytes.
# Glutamate undoubtedly is the endogenous ligand for mGluRs. However, it was necessary to establish whether glutamate itself can induce the modulation in glutamate levels observed, and thus can mimic the modulatory effects observed with ACPD. These studies are difficult since, unlike ACPD, glutamate is also a substrate for the transporter, and therefore, is readily removed. Experiments were carried out in two ways, each yielding similar results. First, cells were preincubated for 24 hours with 100 μM glutamate, then washed and [Glu]o measured in MEM, or secondly, glutamate was directly applied in MEM and changes in [Glu]o were monitored.
# [3] = test system: hippocampal astrocytes; assay: 3H-D-aspartate (glutamate/aspartate) uptake in astrocytes; assay type: cell-based, rat; settings: Rattus norvegicus, Astrocyte; 0.5 mM, 24 hour exposure; average of 25 experiments; read-out: glutamate/aspartate uptake enhanced by
# Protocol: Uptake procedures were essentially identical to those previously described (Kimelberg et al. 1989; Ye et al., 1996). Briefly, 5-10 minutes before assessing uptake, astrocytes were washed and kept in a solution containing (in mM): NaCl 122, KCl 3, MgSO4 0.4, KH2 PO4 1.2, NaHCO3 25, D-glucose 10, and CaCl2 1.3, at 37° C., bubbled with 5%/95% CO2 /O2. Then the cells were switched to the above solution supplemented with 0.1 mM D-aspartate and 0.4 μCi/ml ^3 H-D-aspartate. Glutamate/aspartate uptake was determined over a 10 or 30 minutes period and was terminated by three quick washes, twice with ice cold 0.29 M sucrose solution with 10 mM Tris Nitrate, 0.5 mM Ca(NO3)2, (pH 7.40 by NaOH) and then with ice cold PBS. Cells were then harvested after a 30 minute incubation in 0.3 N NaOH solution (37° C.) and ^3 H activity was determined in a liquid scintillation counter (Beckman). Total uptake was normalized to protein content to eliminate variability due to cell number. Protein levels were determined using the bicinchoninic acid (BCA) assay (Pierce; Rockford, Ill.).
# [4] = test system: rat hippocampal brain slices; assay: THA-induced glutamate release in acute hippocampal brain sections; assay type: cell-based; settings: 400 min pretreatment
# Description: This was accomplished using THA, a heteroexchange drug that is also a substrate for the glutamate transporter. For each molecule of THA transported into the cell, one molecule of glutamate is released. Therefore, THA allows the induction of glutamate release.
# [5] = test system: glial cells; assay: Glial glutamate uptake and extracellular glutamate with MPTP/MPP+ and t-ACPD; assay type: cell-based
# Protocol: The normally low glutamate levels in the brain are established and maintained in glial cells by non-vesicular uptake of glutamate through a Na^+ -dependent transporter (FIG. 14). Once taken up, glutamate can be converted to glutamine and recycled for neurotransmitter synthesis in neurons (FIG. 14). If glial cells in culture are exposed to high glutamate concentrations (e.g., 100 μM), they will remove it from the extracellular space and essentially "detoxify" the neuronal environment. […] Under those conditions, extracellular glutamate levels are elevated to 7 μM (FIG. 16), which is toxic to most surrounding neurons.
# Impaired glial glutamate transport may contribute to the loss of dopaminergic neurons in Parkinson's disease. Thus, stimulation of this pathway would be neuroprotective. A drug and its receptor on glial cells was identified that allows enhanced glutamate detoxification. Specifically, trans-ACPD (trans-1-amino-1,3-cyclopentane dicarboxylic acid) (t-ACPD), a group II metabotropic glutamate receptor agonist, enhanced glial glutamate uptake (FIG. 17). It's actions were 2-fold; (i) it enhanced glutamate uptake by up to 80%, and (ii) it decreased non-specific release of glutamate, effectively trapping glutamate inside glial cells. In fact, the release of glutamate decreased to such a large extent that it almost made the transporter rectify, e.g. allowing only influx and preventing outflow of glutamate (FIG. 18). […] Using antibodies and further pharmacological studies, the receptor that is responsible for these effects has been identified as mGluR2/3.
# In Parkinson's disease, it is believed that neurons may die of excitotoxic exposure to glutamate. The present invention determined that MPTP directly effects glutamate uptake into astrocytes (FIG. 21, top left). […] This increased release may be sufficient to explain some of the subsequent neurodegeneration.
# [6] = test system: hippocampal astrocytes; assay: Intracellular glutamate content [Glu]i of astrocytes; assay type: cell-based, rat; settings: Rattus norvegicus, Astrocyte, 24 h; highest dose used (1 mM), chronic treatment
# Protocol: as §1, with “To assess chronic effects, glutamate analogues were applied for 24 hours unless indicated otherwise.” left out
# [7] = test system: dopaminergic neurons; assay: Cell death of dopaminergic neurons induced by glutamate or MPTP; assay type: cell-based, rat
# Protocol: Cell death of dopaminergic neurons induced by glutamate, and the role of glial glutamate transport in protection of cell death at the cellular level were studied as it relates to Parkinson's disease. […] Thus, glutamate concentrations as low as 3-5 μM induced rapid cell death (FIGS. 11 and 12). Glutamate concentrations were also measured in the normal brain. They are typically around 1 μM, below the toxic level for dopaminergic neurons. […] This late onset of glutamate toxicity is compatible with the late onset of Parkinson's disease.
# [8] = test system: GLT-1; settings: cited from earlier work
# [9] = 500 μM for 24 hour before 50 μM glutamate challenge
smiles,measurement,setting,value
"N[C@@]1(C(=O)O)CC[C@@H](C(=O)O)C1 (relative stereo) [trans-ACPD, trans-1-aminocyclopentane-1,3-dicarboxylic acid]",activity at 100 µM,"[1]; Rattus norvegicus, Astrocyte, 432 h, cells P9, 18 days in vitro, 250 μM agonist",46.3 ± 4.3%
same,activity at 100 µM,"[1]; Rattus norvegicus, Astrocyte, 432 h, cells P23, 18 days in vitro, 200 μM agonist",12.4 ± 1.2%
same,activity at 100 µM,"[1]; Rattus norvegicus, Astrocyte, 456 h, cells P21, 19 days in vitro, 100 μM agonist",23.1 ± 1.4%
same,activity at 100 µM,"[1]; Rattus norvegicus, Astrocyte, 624 h, cells P15, 26 days in vitro, 100 μM agonist",20 ± 6.1%
same,activity at 100 µM,"[1]; Rattus norvegicus, Astrocyte, 672 h, cells P2, 28 days in vitro, 500 μM agonist",78.2 ± 10.1%
same,activity at 100 µM,"[1]; Rattus norvegicus, Astrocyte, cells P0, 60 days in vitro, 100 μM agonist",60.6 ± 6.3%
same,activity at 100 µM,"[1]; Rattus norvegicus, Astrocyte, cells P2, 25 days in vitro, 500 μM agonist",59.6 ± 10.1%
same,activity at 100 µM,"[1]; Rattus norvegicus, Astrocyte, cells P2, 34 days in vitro, 100 μM agonist",51.3 ± 5.7%
same,activity at 100 µM,"[1]; Rattus norvegicus, Astrocyte, cells P40, 31 days in vitro, 100 μM agonist",19.5 ± 2.7%
same,steady-state [Glu]o after glutamate challenge,[2]; [9],0.18 ± 0.03 µM
same,steady-state [Glu]o lower than in control cultures,[2]; [9],5 fold
same,activation at 500 µM,[3],31 ± 2.7%
same,reduction of THA-induced glutamate release,[4],≈ 40%
same,enhancement of glutamate uptake,[5],up to 80%
same,reduction of extracellular glutamate levels versus control,[5]; neuron-glial cocultures (FIG. 19),up to 100%
"N[C@@]1(C(=O)O)CC[C@@H](C(=O)O)C1 [1S3R-ACPD, (1S,3R)-1-aminocyclopentane-1,3-dicarboxylic acid]",more effective than 1R3S-ACPD in reducing glutamate release,[1],≈ 100 fold
same,"time to steady-state [Glu]o, acute application",[1]; 50 μM in glutamate-free MEM,≈ 2 hours
same,"steady-state [Glu]o, acute application","[1]; 50 μM in glutamate-free, glucose-supplemented MEM",0.3 to 0.4 µM
same,THA-induced glutamate release lower in treated cells,"[1]; 100 μM for 24 hours pretreatment, any THA concentration",3-5 fold
same,swelling induced glutamate release,"[1]; 100 μM, 24 h pretreatment, hypotonic 153 mOsm",inhibited swelling induced glutamate release to some extent
same,preincubation time for maximal effects,[1]; 200 μM,≈ 14 hours
same,ET50 of attenuation of [Glu]o versus preincubation time,"[1]; 200 μM, preincubation 0.5-36 hours",≈ 1 hour
same,order of potency in mimicking ACPD effect on glutamate release,[1]; FIG. 7B,S-4CPG>1S3R-ACPD>L-CCG-I>1S3S-ACPD=QA
same,activity at 200 µM,"[1]; Rattus norvegicus, Astrocyte, 14 h, 200 μM, ≈14 hours preincubation, read-out: [Glu]o levels at maximal effect",< 30%
same,activity at 100 µM,"[1]; Rattus norvegicus, Astrocyte, 408 h, cells P22, 17 days in vitro, 100 μM agonist",17.3 ± 1.2%
same,activity at 100 µM,"[1]; Rattus norvegicus, Astrocyte, 408 h, cells P22, 17 days in vitro, 200 μM agonist",14.8 ± 4.3%
same,activity at 100 µM,"[1]; Rattus norvegicus, Astrocyte, 480 h, cells P16, 20 days in vitro, 10 μM agonist",32.5 ± 4.7%
same,activity at 100 µM,"[1]; Rattus norvegicus, Astrocyte, 528 h, cells P2, 22 days in vitro, 100 μM agonist",73.4 ± 2.9%
same,activity at 100 µM,"[1]; Rattus norvegicus, Astrocyte, 528 h, cells P13, 22 days in vitro, 100 μM agonist",34.1 ± 5.6%
same,activity at 100 µM,"[1]; Rattus norvegicus, Astrocyte, 552 h, cells P9, 23 days in vitro, 100 μM agonist",45.8 ± 11.9%
same,activity at 100 µM,"[1]; Rattus norvegicus, Astrocyte, cells P2, 30 days in vitro, 100 μM agonist",66.9 ± 9.9%
same,activity at 100 µM,"[1]; Rattus norvegicus, Astrocyte, cells P9, 36 days in vitro, 100 μM agonist",66.5 ± 6.29%
same,activity at 100 µM,"[1]; Rattus norvegicus, Astrocyte, cells P10, 32 days in vitro, 250 μM agonist",24.1 ± 7.8%
same,activity at 100 µM,"[1]; Rattus norvegicus, Astrocyte, cells P22, 40 days in vitro, 250 μM agonist",29 ± 5.4%
same,EC50,"[1]; Rattus norvegicus, Astrocyte, 24 hours treatment, dose-effect curve, read-out: EC50, reduction of glutamate release",2 to 5 µM
same,effect on [Glu]o / glutamate release,"[1]; cells treated for 24 hours, then MEM",reduce [Glu]o in a dose-dependent manner
same,activation at 500 µM,[3],31 ± 2.7%
same,activity at 1000 µM,[6],85.2 ± 5.1%
N[C@@H](CCC(=O)O)C(=O)O [glutamate],duration of glutamate undershoot,[2]; 100 μM glutamate,approximately 10 hours
same,THA induced glutamate release during undershoot,"[2]; 100 μM glutamate several hours before, 200 μM THA",induced less glutamate release
same,[Glu]o undershoot level after glutamate challenge,"[2]; 100 μM glutamate, P22 astrocyte culture",≈ 0.4 μM
same,IC50,[7],~5 µM
same,neuronal cell death,[7]; 0.03 mM,neurotoxic to most neurons
same,susceptibility of neurons to glutamate by age,[7]; adult rats (>30 days),highest glutamate sensitivity
same,glutamate concentrations inducing rapid cell death,[7]; rat,3 to 5 µM
same,susceptibility of neurons to glutamate by age,[7]; young rats,relatively insensitive
same,Km,[8],2000 nM
